{
  "source": "patent US20080138280A1",
  "about": "“Composition and Methods For Inhibiting Cell Survival” (The Cleveland Clinic Foundation, priority 2003, published 2008)",
  "key": {"[1]": {"tested_on": "CMN1 (normal melanocytes)", "test": "Sulforhodamine B cell growth assay, normal cells", "format": "cell-based, human", "procedure": "(§1) Cell Culture treatments. Cells were maintained in RPMI or DMEM (Mediatech, Herndon, Va.) containing 5% fetal bovine serum (Hyclone, Logan, Utah) and 1% Antibiotic-Antimycotic (GEBCO, Invitrogen Carlsbad, Calif.) as recommended per the American Type Culture Collection media protocol for each cell line. Cells were maintained in 5% CO2 at 37° C. in a humidified tissue culture incubator. Primary non-tumorigenic […] cell lines (DMN-1 and CMN-1), and human foreskin fibroblasts (HFF; CCF, Cleveland, Ohio) were cultured in DMEM-F12 medium supplemented with 10% FBS. Cells were confirmed as mycoplasma free.\n(§2) Sulforhodamine B Cell Growth Assay. Cells were harvested with 0.5% trypsin/0.53 mM EDTA, washed with PBS and resuspended in media containing 10% FBS. Cells were plated in 96-well plates in 0.2-ml aliquots. Cells were allowed to adhere to the plate for 4 h and then NO-Cbl was added in different concentrations to the assay plate. A minimum of four were performed for each treatment. After 16 h, various chemotherapeutic agents including cytokines were added at different concentrations. Growth was monitored by the sulforhodamine B (SRB; Sigma Chemical, St. Louis, Mo.) colorimetric assay. After 36 h, the medium was removed, and the cells were fixed with 10% trichloroacetic acid and stained with SRB. Bound dye was eluted from the cells with 10 mM Tris-HCl (pH 10.5) and absorbance was measured at 570 nm using a Lab systems Multiskan RC 96-well plate reader (Lab Systems Multiscan RC, Thermo Lab Systems, Franklin, Mass.). To quantify the growth of the cells, the experimental absorbance values (Aexp) were compared with initial absorbance readings representing the starting cell numbers (Aini). To determine the starting cell number, an additional 96-well plate was seeded with cells and fixed at the beginning of the experiment. After 5 days growth, the untreated control cells and drug treated cells were fixed and stained with SRB. The absorbances derived from the initial plate and from the untreated cells at the end of the growth period (Afin) were defined as 0% and 100% growth, respectively. The percentage control growth (100%×[Aexp−Aini]/[Afin−Aini]) is expressed as a percentage of untreated controls.\n(§3) Anti-tumor effects of NO-Cbl, Apo2L/TRAIL, and the combination iii vitro. NO-Cbl enhances the anti-cellular effects of Apo2L/TRAIL against malignant Apo2L/TRAIL-resistant cell lines. First the antiproliferative effects of three melanoma lines A375, WM9, and WM3211 (previously reported to be resistant to Apo2L/TRAIL) were measured. Although Apo2L/TRAIL was used as the chemotherapeutic agents, a wide range of anti-cancer drugs and techniques would be enhanced by the NO based cobalamin compounds due to their effective inhibition of the cell survival mechanism. Such other chemotherapeutic agents are tested in the following examples. […] The SRB antiproliferative assay, used by the National Cancer Institute (NCI) to evaluate new chemotherapeutic agents was used herein. Median effect analysis was used to analyze drug interactions between NO-Cbl and Apo2L/TRAIL. Cells were pre-treated with NO-Cbl for 16 h followed by Apo2L/TRAIL for 24 h.\n(§4) The effects of nitrosylcobalamin (NO-Cbl), Apo2L/TRAIL, and the combination on the proliferation of melanoma cell lines A375, WM9, and WM3211 and normal cell lines CMN1, DMN1, and fibroblasts were observed. Cells were treated with NO-Cbl, Apo2L/TRAIL, or pre-treated with NO-Cbl followed by Apo2L/TRAIL for three days, and growth was measured by the colorimetric sulforhodamine B assay. Data points were generated to represent the mean of four replicates±standard error of the mean (SEM). Synergy between NO-Cbl and Apo2L/TRAIL was determined by median effect analysis, (combination index >1 indicates antagonism, =1 indicates additivity, and <1 indicates synergy). The combination index is represented in FIG. 1 and as the combination index observed at the specified concentrations. […]"}, "[2]": {"tested_on": "DMN1 (normal melanocytes)", "test": "Sulforhodamine B cell growth assay, normal cells", "format": "cell-based, human", "procedure": "as §1, §2, §3, §4"}, "[3]": {"tested_on": "normal fibroblasts", "test": "Sulforhodamine B cell growth assay, normal cells", "format": "cell-based, human", "procedure": "as §1, §2, §3, §4"}, "[4]": {"tested_on": "NF-κB-luciferase reporter in A375 cells", "test": "Dual luciferase NF-κB reporter assay", "format": "cell-based, human", "procedure": "Dual Luciferase NF-κB Reporter Assay. Please see FIG. 6. The NP-κB-luciferase (NF-κB-luc) reporter plasmid, containing a 2×NF-κB response element fused to the luciferase, has been previously characterized. Renilla luciferase (pRL-TK, Promega, Madison, Wis.) vector was used to normalize for transfection efficiency. A375 cells were transfected with 20 μg NF-κB-luc and 10 μg PRL-TK using Lipofectamine plus (Gibco BRL/Life Technologies, Invitrogen Carlsbad, Calif.). After transfection cells were allowed to recover overnight and were plated in 6 well plates. […] Cells were then harvested in 1× passive lysis buffer and luciferase activity was measured according to the manufacturer's protocol (Promega, Madison, Wis.) using a Wallac 1420 multilabel counter (Perkin Elmer, Gaithersburg, Md.). The fold induction of NF-κB-luciferase for each treatment was based on untreated values normalized to the fold induction of pRL-TK reporter values. The assays were performed in triplicate.\nTransient transfection assays were performed to assess NF-κB transcriptional activity. A375 cells were co-transfected with a NF-κB-luciferase reporter (NF-κB-luc) and Renilla luciferase (to assess transfection efficiency). Cells were pre-treated with NO-Cbl (100 μM) for 16 h followed by treatment with Apo2L/TRAIL (100 ng/ml) or TNF-α (10 ng/ml) for 4 hours."}, "[5]": {"tested_on": "NIH-OVCAR-3 cells", "test": "Colony formation after gamma irradiation", "format": "cell-based", "settings": "NO-Cbl 50 μM 16 hours, then 1, 2 and 4 Gy; colonies after 23 days", "procedure": "FIG. 7 illustrates that NO-Cbl sensitizes NIH-OVCAR-3 cells to gamma irradiation. NIH-OVCAR-3 cells were pre-treated with NO-Cbl (50 μM) for 16 hours. Cells were then washed and irradiated with 1, 2, and 4 Gy from a Cesium source. Cells were plated in 100 mm dishes and allowed to form colonies. Plates were examined after 23 days and colony number was determined by automated counting of stained colonies. Data is expressed as percent control colony forming units (CFU)."}},
  "data": [
    {"substance": "nitrosylcobalamin [NO-Cbl]", "values": [
      {"measurement": "antiproliferative effect on normal cells", "setting": "[1]", "value": "completely resistant"},
      {"measurement": "antiproliferative effect on normal cells", "setting": "[2]", "value": "completely resistant"},
      {"measurement": "antiproliferative effect on normal cells", "setting": "[3]", "value": "completely resistant"},
      {"measurement": "inhibition of NF-κB activity in response to Apo2L/TRAIL", "setting": "[4]; NO-Cbl 100 μM 16 h followed by Apo2L/TRAIL 100 ng/ml 4 hours", "value": 34, "unit": "%"},
      {"measurement": "inhibition of NF-κB activity in response to TNF-α", "setting": "[4]; NO-Cbl 100 μM 16 h followed by TNF-α 10 ng/ml 4 hours", "value": 51, "unit": "%"},
      {"measurement": "sensitization to gamma irradiation (colony forming units)", "setting": "[5]", "value": "sensitizes"}
    ]}
  ]
}
